Reference: patent publication US20250171486A1, “N4-ISOBUTYRYLOXYCYTIDINE ANALOG SYNTHESIS AND COMPOSITION FOR TREATING VIRAL INFECTION COMPRISING ANTI-VIRAL USE THEREOF” (Dong-A University Research Foundation for Industry-Academy …, priority 2022, published 2025)
Where two headings read alike, the source gives them in different places.

Key:
[1] = tested on: Influenza virus A/Hong Kong/8/68 (HK: H3N2); assay: organism not typed; assay type: cell-based; conditions: for EC50: read-out: Antiviral activity (EC50) Flu A H3N2 Hong Kong; for Selectivity index Flu A H3H2 Hong Kong: MDCK cells
[2] = Cytotoxicity in mock-infected MDCK cells (MTT); conditions: dog, mock-infected MDCK cells
[3] = tested on: Influenza virus B/Lee/40 (Lee); assay: microbe, parasite or virus in culture; assay type: cell-based; conditions: for Selectivity index Flu B Lee: MDCK cells; for EC50: read-out: Antiviral activity (EC50) Flu B Lee
[4] = tested on: Influenza virus A/Puerto Rico/8/34 (PR8; H1N1); assay: organism not typed; assay type: cell-based; conditions: for EC50: read-out: Antiviral activity (EC50) Flu A H1N1 PR8; for Selectivity index Flu A H1N1 PR8: MDCK cells
in vitro [5] = conditions: dog
in vitro [6] = conditions: for CC50: African green monkey
DENV-2 replicon = assay: microbe, parasite or virus in culture; assay type: cell-based; conditions: for S.I., Selectivity index = CC50/EC50: DENV-2, BHK-21 cells
[7] = MTT cytotoxicity assay in DENV-2 replicon BHK-21 cells; conditions: hamster
[8] = tested on: SARS-COV-2 (BetaCoV/Korea/KCDC03/2020); assay: Image-based anti-SARS-COV-2 assay in Vero cells (anti-spike antibody); assay type: cell-based
Vero cells = conditions: for CC50: read-out: CC50, cytotoxicity, 2 days
[9] = tested on: DENV-2 replicon BHK-21 (DENV2-BHK) cells; assay: MTT cytotoxicity assay in DENV-2 replicon BHK-21 cells; conditions: for CC50: read-out: CC50, 50% cytotoxic concentration, BHK-21 cells, MTT
MDCK cells = assay: Cytotoxicity in mock-infected MDCK cells (MTT); conditions: read-out: Toxicity (CC50); MDCK cells, 3 days
[10] = unidentified influenza virus, MDCK, 72 h
[11] = Dengue virus, DENV2, BHK-21, read-out: EC50, 50% effective concentration, anti-DENV-2 activity
[12] = Severe acute respiratory syndrome coronavirus 2, Vero, 48 h
[13] = read-out: EC50, 50% effective concentration, anti-DENV-2 activity, DENV-2 replicon BHK-21 cells, luciferase

NC(=O)c1nc(F)cnc1O [Compound T-705, 6-fluoro-3-hydroxy-2-pyrazinecarboxamide, reference compound]
EC50 ([1]; MDCK, 72 h): 8.5 µM
CC50 at 3 days [2]: > 100 µM
Selectivity index Flu B Lee [3]: >13.2
EC50 [3, 10]: 7.6 µM
EC50 ([4]; MDCK, 72 h): 3.2 µM

NC12CC3CC(CC(C3)C1)C2 [AMT, Amantadine]
Selectivity index Flu A H3H2 Hong Kong [1]: >15.6
EC50 ([1]; MDCK, 72 h): 6.4 µM
CC50 (in vitro [5]): > 100 µM
EC50 [3, 10]: > 100 µM
EC50 ([4]; MDCK, 72 h): > 100 µM

CC(C)C(=O)OC[C@H]1O[C@@H](n2ccc(NO)nc2=O)[C@@H](O)C1O (stereo partly drawn) [Compound 7, reference compound]
CC50 (in vitro [6]): > 100 µM
Selectivity index Flu A H3H2 Hong Kong [1]: >16.7
EC50 ([1]; MDCK, 72 h): 6 µM
S.I., Selectivity index = CC50/EC50 (DENV-2 replicon): 1.81
EC50 (DENV-2 replicon; [11]): 23.4 µM
CC50 [7]: 42.2 µM
CC50 at 3 days [2]: > 100 µM
EC50 [8, 12]: 11.8 µM
Selectivity index Flu B Lee [3]: >4.2
EC50 [3, 10]: 23.8 µM
Selectivity index Flu A H1N1 PR8 [4]: >15.2
EC50 ([4]; MDCK, 72 h): 6.6 µM

CC(C)C(=O)ONc1ccn([C@@H]2O[C@H](CO)[C@@H](O)[C@H]2O)c(=O)n1 [Compound 5a, 1-((2R,3R,4S,5R)-3,4-Dihydroxy-5-(hydroxymethyl)tetrahydrofuran-2-yl)-4-((isobutyryloxy)amino)pyrimidin-2 (1H)-one]
CC50 (in vitro [6]): > 100 µM
CC50 at 2 days (in vitro [6]; chlorocebus sabaeus): > 100 µM
Selectivity index Flu A H3H2 Hong Kong [1]: >13.7
EC50 ([1]; MDCK, 72 h): 7.3 µM
S.I., Selectivity index = CC50/EC50 (DENV-2 replicon): 2.74
EC50 value improved over the ester precursor 7 (DENV-2 replicon; DENV-2 replicon): about 6 fold
EC50 value increased compared to the parent Compound 6 (DENV-2 replicon; DENV-2 replicon): about 2 fold
EC50 (DENV-2 replicon; [11]): 3.95 µM
Cytotoxicity improved compared to the parent Compound 6 (Vero cells; SARS-COV-2 test): ≥ 6 times
Cytotoxicity reduced compared to the parent Compound 6 ([9]; DENV-2 replicon cells): 2 fold
CC50 [9]: 10.8 µM
CC50 at 3 days [2]: > 100 µM
Antiviral activity improved compared to the parent Compound 6 ([8]; SARS-COV-2): about 5 times
Antiviral activity improved over the other ester precursor 7 ([8]; SARS-COV-2): 3.5 fold
EC50 [8, 12]: 3.5 µM
Selectivity index Flu B Lee [3]: >29.4
EC50 [3, 10]: 3.4 µM
Selectivity index Flu A H1N1 PR8 [4]: >17.2
EC50 ([4]; MDCK, 72 h): 5.8 µM

CCOC(=O)[C@H](Cc1ccccc1)Nc1ccn([C@@H]2O[C@H](CO)[C@@H](O)[C@H]2O)c(=O)n1 [Compound 5f, Ethyl(1-((2R,3R,4S,5R)-3,4-dihydroxy-5-(hydroxymethyl)tetrahydrofuran-2-yl)-2-oxo-1,2-dihydropyrimidin-4-yl)-L-phenylalaninate]
EC50 [1]: > 100 µM
EC50 (DENV-2 replicon; [13]): > 100 µM
CC50 (Vero cells): > 100 µM
CC50 [9]: > 100 µM
CC50 (MDCK cells): > 100 µM
EC50 [8]: > 100 µM
EC50 [3]: > 100 µM
EC50 [4]: > 100 µM

CCOC(=O)[C@H](CC(C)C)Nc1ccn([C@@H]2O[C@H](CO)[C@@H](O)[C@H]2O)c(=O)n1 [Compound 5e, Ethyl(1-((2R,3R,4S,5R)-3,4-dihydroxy-5-(hydroxymethyl)tetrahydrofuran-2-yl)-2-oxo-1,2-dihydropyrimidin-4-yl)-L-leucinate]
EC50 [1]: > 100 µM
EC50 (DENV-2 replicon; [13]): > 100 µM
CC50 (Vero cells): > 100 µM
CC50 [9]: > 100 µM
CC50 (MDCK cells): > 100 µM
EC50 [8]: > 100 µM
EC50 [3]: > 100 µM
EC50 [4]: > 100 µM

CCOC(=O)[C@H](C)Nc1ccn([C@@H]2O[C@H](CO)[C@@H](O)[C@H]2O)c(=O)n1 [Compound 5d, Ethyl(1-((2R,3R,4S,5R)-3,4-dihydroxy-5-(hydroxymethyl)tetrahydrofuran-2-yl)-2-oxo-1,2-dihydropyrimidin-4-yl)-L-alaninate]
EC50 [1]: > 100 µM
EC50 (DENV-2 replicon; [13]): > 100 µM
CC50 (Vero cells): > 100 µM
CC50 [9]: > 100 µM
CC50 (MDCK cells): > 100 µM
EC50 [8]: > 100 µM
EC50 [3]: > 100 µM
EC50 [4]: > 100 µM

O=c1nc(NO)ccn1[C@@H]1O[C@H](CO)C(O)[C@@H]1O (stereo partly drawn) [Compound 6, β-D-N^4-hydroxycytidine, reference compound]
CC50 (in vitro [6]): 16.5 µM
Selectivity index Flu A H3H2 Hong Kong [1]: >43.5
EC50 ([1]; MDCK, 72 h): 2.3 µM
S.I., Selectivity index = CC50/EC50 (DENV-2 replicon): 2.02
EC50 (DENV-2 replicon; [11]): 2.84 µM
CC50 [7]: 5.75 µM
CC50 at 3 days (in vitro [5]): > 100 µM
EC50 [8, 12]: > 16.5 µM
EC50 [3, 10]: < 1.2 µM
Selectivity index Flu A H1N1 PR8 [4]: >58.8
EC50 ([4]; MDCK, 72 h): 1.7 µM

O=c1nc(NCCO)ccn1[C@@H]1O[C@H](CO)[C@@H](O)[C@H]1O [Compound 5b, 1-((2R,3R,4S,5R)-3,4-Dihydroxy-5-(hydroxymethyl)tetrahydrofuran-2-yl)-4-((2-hydroxyethyl)amino)pyrimidin-2 (1H)-one]
CC50 (in vitro [6]): > 100 µM
EC50 ([1]; MDCK, 72 h): > 100 µM
Anti-DENV activity in replication assays (in words) (DENV-2 replicon; DENV-2 replicon): did not exhibit significant anti-DENV activity
EC50 (DENV-2 replicon; [11]): > 100 µM
CC50 [7]: > 100 µM
CC50 at 3 days (in vitro [5]): > 100 µM
EC50 [8, 12]: > 100 µM
Biological SARS-COV-2 activity (in words) ([8]; Vero cells): did not show significant biological SARS-COV-2 activity
EC50 [3, 10]: > 100 µM
Anti-Flu A/B activity (in words) ([4]; Flu A (H1N1, H3N2) and Flu B together): did not exhibit significant anti-Flu A/B activity
EC50 ([4]; MDCK, 72 h): > 100 µM

CCOC(=O)CNc1ccn([C@@H]2O[C@H](CO)[C@@H](O)[C@H]2O)c(=O)n1 [Compound 5c, Ethyl(1-((2R,3R,4S,5R)-3,4-dihydroxy-5-(hydroxymethyl)tetrahydrofuran-2-yl)-2-oxo-1,2-dihydropyrimidin-4-yl)glycinate]
EC50 [1]: > 100 µM
EC50 (DENV-2 replicon; [13]): > 100 µM
CC50 (Vero cells): > 100 µM
CC50 [9]: > 100 µM
CC50 (MDCK cells): > 100 µM
EC50 [8]: > 100 µM
EC50 [3]: > 100 µM
EC50 [4]: > 100 µM

NC(=O)c1ncn([C@@H]2O[C@H](CO)[C@@H](O)[C@H]2O)n1 [RBV, Ribavirin, reference compound]
EC50 (DENV-2 replicon; [11]): 1.16 µM
CC50 [9]: 5.46 µM
EC50 [3, 10]: 33.3 µM

CCC(CC)COC(=O)[C@H](C)N[P@](=O)(OC[C@H]1O[C@@](C#N)(c2ccc3c(N)ncnn23)[C@H](O)[C@@H]1O)Oc1ccccc1 [Remdesivir, reference compound]
CC50 (in vitro [6]): > 100 µM
